Reference: publication PMC9457622, “Synthesis of Bio-Inspired 1,3-Diarylpropene Derivatives via Heck Cross-Coupling and Cytotoxic Evaluation on Breast Cancer Cells” (Molecules, 2022)
“Also recorded” adds a separate entry of the source.

Key:
Format in all cases: cell-based
[1] = test system: MCF-7 human breast cancer cell lines; assay: MTT proliferation (cytotoxicity) assay on MCF-7 cells; details: for cytotoxicity against MCF-7 (in words): 10-100 µM, 24-72 h; for cytotoxicity against MCF-7 (in words) / IC50: MTT; for SI (selectivity index) MCF-7: IC50 normal cells (MCF-10A) divided by IC50 MCF-7; for IC50: Homo sapiens, MCF7
From the text: (§1) MCF-7 and MDA-MB-231 human breast cancer cell lines, as well as MCF-10A human normal breast cell lines, were used in this study. These cells were acquired from the American Type Culture Collection (Manassas, VA, USA). MCF-7 and MDAMB-231 cells were regularly cultured in Dulbecco’s Modified Eagle’s Medium (DMEM; Gibco, Waltham, MA, USA), and supplemented with 10% (v/v) foetal bovine serum (FBS; Gibco, Waltham, MA, USA) and 100 U/mL penicillin-streptomycin (PenStrep; Gibco, Waltham, MA, USA). MCF-10A cells were routinely cultured in DMEM/F12 (Gibco, Waltham, MA, USA) medium supplemented with 5% horse serum (Sigma-Aldrich, Burlington, MA, USA), 10 μg/mL of insulin (Sigma-Aldrich, Burlington, MA, USA), 20 ng/mL of human epidermal growth factor (hEGF; ThermoFisher, Waltham, MA, USA), 0.5 μg/mL of hydrocortisone (Sigma-Aldrich, Burlington, MA, USA) and 1 U/mL PenStrep. All cell lines were maintained in a humidified atmosphere with 5% CO2 at 37 °C.
(§2) The effects of the N-(2-cinnamylphenyl)amide products (i.e., isolated pure isomers) on MCF-7, MDA-MB-231 and MCF-10A were determined using a 3-(4,5-dimethylthiazol-2-yl)-2,5-diphenyltetrazolium bromide (MTT) proliferation assay. The cell lines were seeded in 96-well plates at a density of 1 × 10^4 cells/well and allowed to grow overnight for cell attachment. The cell lines were then treated with fresh assay medium, supplemented with increasing concentrations of tested compounds (10–100 µM) and incubated for 24–72 h at 37 °C. For this assay, the blank and negative controls used were the culture medium alone (without cells) and cells with culture medium only (untreated cells), respectively. […] At each incubation period (24, 48 and 72 h), 10 μL of MTT solution (5 mg/mL) was added to each well, and cells were further incubated for 4 h at 37 °C in 5% CO2. The solution mixture in each well was replaced with 100 μL of dimethyl sulfoxide (DMSO) to solubilise the MTT crystalline products. The optical density (O.D.) of each well was measured using a microplate reader (PowerWave-XS; Bio-Tek Instruments, Winooski, Vermont, USA) at 570 nm. The experiments were conducted in triplicate for each cell line.
(§3) The selectivity index (SI) was used to indicate the cytotoxic selectivity of the samples against cancer cells and normal cells. It was calculated from the IC50 of the samples in normal cells versus cancer cells. […] All data were analysed and presented as means standard deviation (±SD). Comparisons between each concentration of 18 samples were evaluated using Student’s t-test, where p < 0.05, p < 0.01 or p < 0.001 were considered as statistically significant relative to the untreated control cells.

[2] = test system: MDA-MB-231 human breast cancer cell lines; assay: MTT proliferation (cytotoxicity) assay on MDA-MB-231 cells; details: for cytotoxicity against MDA-MB-231 (in words): 10-100 µM, 24-72 h; for cytotoxicity against MDA-MB-231 (in words) / IC50: MTT; for SI (selectivity index) MDA-MB-231: IC50 normal cells (MCF-10A) divided by IC50 MDA-MB-231; for IC50: Homo sapiens, MDA-MB-231
From the text: as §1, §2, §3

[3] = test system: MCF-10A human normal breast cell lines; assay: MTT proliferation (cytotoxicity) assay on MCF-10A normal cells
From the text: as §1, §2, §3

CCCCC(=O)Nc1ccccc1/C=C/Cc1ccc(OC)cc1 [Compound 6d, (E)-N-(2-(3-(4-Methoxyphenyl)prop-1-en-1-yl)phenyl)pentanamide]
cytotoxicity against MCF-7 (in words) [1]: low growth inhibition | SI (selectivity index) MCF-7 ([1]; 24 h): > 1.06 | SI (selectivity index) MCF-7 ([1]; 48 h): 1.01 | SI (selectivity index) MCF-7 ([1]; 72 h): 1.41 | IC50 ([1]; 24 h incubation): 94 ± 1.26 µM | IC50 ([1]; 48 h incubation): 93.3 ± 2.15 µM | IC50 ([1]; 72 h incubation): 65.8 ± 7.33 µM | cytotoxicity against MDA-MB-231 (in words) [2]: inactive; also recorded: low growth inhibition | SI (selectivity index) MDA-MB-231 ([2]; 48 h): < 0.94 | SI (selectivity index) MDA-MB-231 ([2]; 72 h): < 0.93 | IC50 ([2]; 24 h incubation): > 100 µM | IC50 ([2]; 48 h incubation): > 100 µM | IC50 ([2]; 72 h incubation): > 100 µM | IC50 ([3]; 24 h incubation): > 100 µM | IC50 ([3]; 48 h incubation): 94.4 ± 9.71 µM | IC50 ([3]; 72 h incubation): 92.9 ± 8.71 µM

CCCCCC(=O)Nc1ccccc1C/C=C/c1ccc(OC)cc1 [Compound 7e, (E)-N-(2-(3-(4-Methoxyphenyl)allyl)phenyl)hexanamide]
cytotoxicity against MCF-7 (in words) [1]: low growth inhibition | SI (selectivity index) MCF-7 ([1]; 48 h): < 0.70 | SI (selectivity index) MCF-7 ([1]; 72 h): 0.78 | IC50 ([1]; 24 h incubation): > 100 µM | IC50 ([1]; 48 h incubation): > 100 µM | IC50 ([1]; 72 h incubation): 88.5 ± 2.37 µM | cytotoxicity against MDA-MB-231 (in words) [2]: inactive; also recorded: low growth inhibition | SI (selectivity index) MDA-MB-231 ([2]; 48 h): < 0.70 | SI (selectivity index) MDA-MB-231 ([2]; 72 h): < 0.69 | IC50 ([2]; 24 h incubation): > 100 µM | IC50 ([2]; 48 h incubation): > 100 µM | IC50 ([2]; 72 h incubation): > 100 µM | IC50 ([3]; 24 h incubation): > 100 µM | IC50 ([3]; 48 h incubation): 70.3 ± 1.88 µM | IC50 ([3]; 72 h incubation): 69.18 ± 0.01 µM

COc1ccc(/C=C/Cc2ccccc2NC(=O)c2ccccc2C)cc1 [Compound 7i, (E)-N-(2-(3-(4-Methoxyphenyl)allyl)phenyl)-2-methylbenzamide]
cytotoxicity against MCF-7 (in words) [1]: low growth inhibition | cytotoxicity against MDA-MB-231 (in words) [2]: low growth inhibition

COc1ccc(C/C=C/c2ccccc2NC(=O)c2ccccc2C)cc1 [Compound 6i, (E)-N-(2-(3-(4-Methoxyphenyl)prop-1-en-1-yl)phenyl)-2-methylbenzamide]
SI (selectivity index) MCF-7 ([1]; 72 h): > 1.09 | IC50 ([1]; 24 h incubation): > 100 µM | IC50 ([1]; 48 h incubation): > 100 µM | IC50 ([1]; 72 h incubation): 91.8 ± 7.95 µM | SI (selectivity index) MDA-MB-231 ([2]; 72 h): > 1.36 | IC50 ([2]; 24 h incubation): > 100 µM | IC50 ([2]; 48 h incubation): > 100 µM | IC50 ([2]; 72 h incubation): 73.8 ± 6.92 µM | IC50 ([3]; 24 h incubation): > 100 µM | IC50 ([3]; 48 h incubation): > 100 µM | IC50 ([3]; 72 h incubation): > 100 µM

CCCCCC(=O)Nc1ccccc1/C=C/Cc1ccc(OC)cc1 [Compound 6e, (E)-N-(2-(3-(4-Methoxyphenyl)prop-1-en-1-yl)phenyl)hexanamide]
cytotoxicity against MCF-7 (in words) [1]: low growth inhibition | SI (selectivity index) MCF-7 ([1]; 24 h): < 0.81 | SI (selectivity index) MCF-7 ([1]; 48 h): < 0.90 | SI (selectivity index) MCF-7 ([1]; 72 h): < 0.99 | IC50 ([1]; 24 h incubation): > 100 µM | IC50 ([1]; 48 h incubation): > 100 µM | IC50 ([1]; 72 h incubation): > 100 µM | cytotoxicity against MDA-MB-231 (in words) [2]: low growth inhibition | SI (selectivity index) MDA-MB-231 ([2]; 24 h): < 0.81 | SI (selectivity index) MDA-MB-231 ([2]; 48 h): < 0.90 | SI (selectivity index) MDA-MB-231 ([2]; 72 h): < 0.99 | IC50 ([2]; 24 h incubation): > 100 µM | IC50 ([2]; 48 h incubation): > 100 µM | IC50 ([2]; 72 h incubation): > 100 µM | IC50 ([3]; 24 h incubation): 80.9 ± 7.58 µM | IC50 ([3]; 48 h incubation): 90.1 ± 8.8 µM | IC50 ([3]; 72 h incubation): 98.5 ± 2.6 µM

CCCCC(=O)Nc1ccccc1C/C=C/c1ccc(OC)cc1 [Compound 7d, (E)-N-(2-(3-(4-Methoxyphenyl)allyl)phenyl)pentanamide]
cytotoxicity against MCF-7 (in words) [1]: low growth inhibition | SI (selectivity index) MCF-7 ([1]; 24 h): > 1.70 | SI (selectivity index) MCF-7 ([1]; 48 h): 1.54 | SI (selectivity index) MCF-7 ([1]; 72 h): 1.49 | IC50 ([1]; 24 h incubation): 58.9 ± 1.81 µM | IC50 ([1]; 48 h incubation): 48.7 ± 3.46 µM | IC50 ([1]; 72 h incubation): 47.9 ± 2.96 µM | SI value ([1]; abstract, time not stated, considered general toxicity): < 2 | cytotoxicity against MDA-MB-231 (in words) [2]: inactive; also recorded: low growth inhibition | SI (selectivity index) MDA-MB-231 ([2]; 48 h): < 0.75 | SI (selectivity index) MDA-MB-231 ([2]; 72 h): < 0.71 | IC50 ([2]; 24 h incubation): > 100 µM | IC50 ([2]; 48 h incubation): > 100 µM | IC50 ([2]; 72 h incubation): > 100 µM | IC50 ([3]; 24 h incubation): > 100 µM | IC50 ([3]; 48 h incubation): 75 ± 8.58 µM | IC50 ([3]; 72 h incubation): 71.2 ± 9.25 µM
